In patent US7112422B2, “Fluorometric assay for detecting nucleic acid cleavage” (Georgetown University, priority 1994, dated 2006):
{FITC} = fluorescein isothiocyanate through the Aminolink 2 six-carbon amine linker

B1: F-D1/T1: 5′-TGAGTACCCGTGTGGAAAATCTCTAGCAGGGNCTATGGCGTCCCCTCTG (SEQ ID NO:3); E-D2: 3′-… (SEQ ID NO:4) (nucleic acid)
sense: TGAGTACCCGTGTGGAAAATCTCTAGCAGGGNCTATGGCGTCCCCTCTG
antisense: NACTGCTAGAGATTTTCCACACGGGTACTCA
modifications: FITC and EITC labels, chemistry not fully specified
notes: FITC-labeled 49-mer hybrid strand of HIV-1 U5 end annealed to EITC-labeled partial complementary strand

Columns and labels:
[1] = target: T1, BamHI restriction endonuclease (Bacillus amyloliquefaciens, UniProt P23940); assay: BamHI cleavage of FITC-labeled DNA substrate, continuous fluorometric (dequenching) assay; type: biochemical, Bacillus amyloliquefaciens H; settings: 10 units BamHI in 100 μl, 37° C.
T1 construct: purchased New England Biolab
Procedure: Spectroscopic Measurements: Absorbance and absorption spectra were measured with a Hewlett-Packard 8450A diode array spectrophotometer. Using the extinction coefficient of fluorescein (E-78,000) at 492 nm, the concentration and total moles of fluorescein were calculated (Chen and Scott, supra). The amount of fluorescein conjugated to the oligonucleotide was estimated by subtracting the moles of fluorescein multiplied by the extinction coefficient of FITC at 260 nm, 23,000 M^−1 cm^−1, from the total absorbance at 260 nm. The remaining AU260 should be proportional to the DNA content. Steady-state fluorescence spectra and intensity were recorded with an SLM 8000 spectrophotofluorometer with 10-mm Glan-Thompson polarizers. Fluorescence emission measurements were performed under “magic angle” emission conditions (Spencer and Weber, J. Chem. Phys. 52:1654–1663 (1970)). A cuvette with a 3-mm excitation path length was used for all experiments. The absorbance of all fluorescence samples was less than 0.1 at the wavelength of excitation to avoid inner-filter effects. The temperatures of the samples were regulated with a Neslab Instruments, Inc., T.E.Q. temperature controller and a PBC4 bath cooler.
The extent of cleavage by BamHI was calculated from the fluorescence data utilizing the following equation:
[formula] where [DNA]c is the concentration of cleaved DNA, Ft is the fluorescence intensity at time, t, F∞is the fluorescence intensity at the plateau, F0 is the initial fluorescence intensity, and [DNA]i is the initial concentration of DNA. Results and Discussion
(§1) Cleavage reactions were also examined as a function of substrate concentration with a fixed concentration of BamHI (10 units in 100 μl total reaction volume). The reactions were initiated by the addition of BamHI and stopped by the addition of 25 mM EDTA 11 minutes after the enzyme was added. The reaction mixtures were subjected to native 20% polyacrylamide gel analysis. Since the DNA substrate was labeled with FITC, a photograph of the gel was taken under ultraviolet illumination (using a Kodak green filter) without staining the gel with ethidium bromide. Therefore, only the fluorescent-labeled DNA fragments were visualized, resulting in two DNA bands: a substrate band and a product band (5′-FITC-NH-CCCCG). A direct comparison was made between the data obtained from the fluorometric assay and the photographic data obtained from gel electrophoretic analysis. The kinetics of BamHI cleavage reactions as a function of DNA substrate concentration measured by fluorometric analysis are illustrated in FIG. 7A. […] Similarly, the reaction at 0.36 μM substrate reached near completion as shown by both the fluorescence (curve B, FIG. 7A) and the gel data (lane B, FIG. 7B). Higher DNA substrate concentrations, 0.72 μM (curve C, FIG. 7A) and 1.08 μM (curve D, FIG. 7A), yielded incomplete cleavage reactions (observed by changes in fluorescence intensity). […] It appears that the initial velocity of curve D is also slower than that of curve C. […] As expected, the PAGE data (FIG. 7B) show higher product formation in lane C compared to that of lane D.
The fractions of uncleaved and cleaved DNA were calculated from the fluorescence data utilizing equation 1 (see Methods). Fractions of uncleaved and cleaved DNA were also estimated from a photograph taken from the polyacrylamide gel. […]

[2] = target: T1, BamHI restriction endonuclease; assay: BamHI cleavage of FITC-labeled DNA substrate, native 20% PAGE with densitometry; type: biochemical, Bacillus amyloliquefaciens H; settings: 10 units BamHI in 100 μl, 37° C.
Procedure: as §1
The fractions of uncleaved and cleaved DNA were calculated from the fluorescence data utilizing equation 1 (see Methods). Fractions of uncleaved and cleaved DNA were also estimated from a photograph taken from the polyacrylamide gel. Utilizing a Hewlett Packard ScanJet IIp and the densitometry program Scan Analysis 68000 (BioSoft), the peaks obtained from each of the bands (substrate and products) were integrated and ratioed to obtain the relative amount of cleavage.

[3] = target: T2, HIV-IN (Human immunodeficiency virus type 1 group M subtype B, UniProt P12497); assay: HIV-IN cleavage of fluorogenic substrate monitored by FRET; type: biochemical
T2 construct: The wild-type HIV-integrase protein was obtained from Dr. Robert Craigie; made in house; host or cells: Escherichia coli
Procedure: FIGS. 10A and 10B: FIG. 10A is a graph depicting steady-state emission spectra of a fluorogenic substrate in the presence and absence of HIV-IN. Curve A depicts the emission spectrum of 4 pmol of fluorogenic substrate in 400 μl reaction buffer containing 25 mM HEPES, pH 7.5, 50 mM NaCl, 2 mM DTT, and 5% glycerol at 37° C. Curve B depicts the emission spectrum of the same substrate digested with 40 pmol HIV-IN for 1 hour. Curve C depicts the difference emission spectrum of curve B and curve A. Emission spectra were recorded with an excitation wavelength at 460 nm.
FIGS. 11A, 11B, and 11C: FIG. 11A is a graph depicting the kinetics of an HIV-IN cleavage reaction of a fluorogenic substrate monitored by FRET. The DNA cleavage reaction was initiated by the addition of HIV-IN to a preincubated reaction mixture containing 4 pmol of substrate. The conditions for the reactions are the same as in FIG. 10. Changes in fluorescence intensity were monitored with excitation and emission wavelengths of 460 and 510 nm, respectively. Mn^2+ quenched the fluorescence intensity of the substrate in the absence of the enzyme; thus, the kinetic data presented in this figure were intensity normalized according to the intensity ratio of the substrate in the presence of Mg^2+ and in the presence of Mn^2+. FIG. 11B depicts the kinetics of an HIV-IN cleavage reaction of a fluorogenic substrate monitored by denaturing polyacrylamide gel electrophoresis (PAGE). The time course of a ^32P-5′-labeled fluorescent substrate was determined by radiographic assays. […] Reaction mixtures were analyzed by denaturing gel electrophoresis. Results were quantitated by utilizing a Hewlet-Packard ScanJet IIp and the densitometry program Scan Analysis 68020 (BioSoft). […]
Spectroscopic Measurements: Absorbance and absorption spectra were measured with a Hewlett-Packard 8450A diode array spectrophotometer. Steady-state fluorescence spectra and intensity were recorded with an SLM 8000 spectrophotofluorometer with 10-mm Glan-Thompson polarizers. […]

[4] = Curve A, [DNA] 0.21 μM, stopped after 11 minutes
[5] = Curve B, [DNA] 0.36 μM, stopped after 11 minutes
[6] = Curve C, [DNA] 0.72 μM, stopped after 11 minutes
[7] = Curve D, [DNA] 1.08 μM, stopped after 11 minutes
[8] = Curve E, [DNA] 0.18 μM, in the presence of 25 mM EDTA

T1 sequence (P23940 whole entry): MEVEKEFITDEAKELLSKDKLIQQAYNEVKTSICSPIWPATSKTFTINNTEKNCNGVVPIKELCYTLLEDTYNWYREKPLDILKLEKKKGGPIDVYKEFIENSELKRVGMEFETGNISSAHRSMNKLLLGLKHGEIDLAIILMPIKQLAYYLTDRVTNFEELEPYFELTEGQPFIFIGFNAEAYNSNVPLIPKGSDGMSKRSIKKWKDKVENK

Molecule | % Cleavage Fluorescence Assay [1, 4] | % Cleavage Fluorescence Assay [1, 5] | % Cleavage Fluorescence Assay [1, 6] | % Cleavage Fluorescence Assay [1, 7] | % Cleavage Fluorescence Assay [1, 8] | % Cleavage PAGE [2, 4] | % Cleavage PAGE [2, 5] | % Cleavage PAGE [2, 6] | % Cleavage PAGE [2, 7] | % Cleavage PAGE [2, 8] | estimated efficiency of the cleavage reaction by HIV-IN ([3]; 4 pmol substrate, 40 pmol HIV-IN, 1 hour, 37° C., in the presence of Mg2+, relative to DNase I digestion) | changes in donor fluorescence with Mg2+ relative to Mn2+ ([3]; 7.5 mM Mg2+ vs 7.5 mM Mn2+, end of a 60 minute reaction, intensity normalized) | cleavage of substrate by integrase (increase in fluorescence intensity) ([3]; in the presence of 20 mM EDTA, 37° C.)
5′-FITC-NH-CCCCGGATCCACCC-3′ (SEQ ID NO:1) annealed to 3′-GGGGCCTAGGTGGG-5′ (SEQ ID NO:2) (antisense GGGTGGATCCGGGG; sense: DNA, 5' {FITC}, backbone and methylation of C not given here; antisense: DNA, backbone and methylation of C not given here; further chemistry not fully specified) [FITC-labeled DNA Substrates, 14-mer FITC-labeled oligonucleotide with the BamHI restriction site, annealed to its unlabeled complementary strand] | 100% | 91.9% | 59.5% | 32.2% | 0% | 100% | 92.3% | 60.6% | 30.1% | 0% |  |  | 
B1 |  |  |  |  |  |  |  |  |  |  | 35% | approximately 3 times | not cleaved
